Source: PubChem BioAssay (NCI)
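Values below derive from 48-hour exposures of cells grown in 96-well plates, with endpoints linearly interpolated between the two concentrations bracketing the appropriate inhibition level. Here, GI50 denotes the concentration required for 50% inhibition of growth. TGI denotes the concentration required for complete inhibition of growth.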

Assays:
Assay in all cases: NCI-60 cell line screen, 48 h
786-0 renal = tested on: 786-0 renal
A498 renal = tested on: A498 renal
A549 NSCLC = tested on: A549 NSCLC
ACHN renal = tested on: ACHN renal
BT-549 breast = tested on: BT-549 breast
CAKI-1 renal = tested on: CAKI-1 renal
CCRF-CEM leukemia = tested on: CCRF-CEM leukemia
COLO 205 colon = tested on: COLO 205 colon
DU-145 prostate = tested on: DU-145 prostate
EKVX NSCLC = tested on: EKVX NSCLC
HCC-2998 colon = tested on: HCC-2998 colon
HCT-116 colon = tested on: HCT-116 colon
HCT-15 colon = tested on: HCT-15 colon
HL-60(TB) leukemia = tested on: HL-60(TB) leukemia
HOP-62 NSCLC = tested on: HOP-62 NSCLC
HOP-92 NSCLC = tested on: HOP-92 NSCLC
HS 578T breast = tested on: HS 578T breast
HT29 colon = tested on: HT29 colon
IGROV1 ovarian = tested on: IGROV1 ovarian
K-562 leukemia = tested on: K-562 leukemia
KM12 colon = tested on: KM12 colon
LOX IMVI melanoma = tested on: LOX IMVI melanoma
M14 melanoma = tested on: M14 melanoma
MALME-3M melanoma = tested on: MALME-3M melanoma
MCF7 breast = tested on: MCF7 breast
MDA-MB-231 breast = tested on: MDA-MB-231 breast
MDA-MB-435 = tested on: MDA-MB-435
MOLT-4 leukemia = tested on: MOLT-4 leukemia
NCI-H226 lung = tested on: NCI-H226 lung
NCI-H23 lung = tested on: NCI-H23 lung
NCI-H460 lung = tested on: NCI-H460 lung
NCI-H522 lung = tested on: NCI-H522 lung
NCI/ADR-RES ovarian = tested on: NCI/ADR-RES ovarian
OVCAR-3 ovarian = tested on: OVCAR-3 ovarian
OVCAR-4 ovarian = tested on: OVCAR-4 ovarian
OVCAR-5 ovarian = tested on: OVCAR-5 ovarian
OVCAR-8 ovarian = tested on: OVCAR-8 ovarian
PC-3 prostate = tested on: PC-3 prostate
RPMI-8226 leukemia = tested on: RPMI-8226 leukemia
RXF 393 renal = tested on: RXF 393 renal
SF-268 CNS = tested on: SF-268 CNS
SF-295 CNS = tested on: SF-295 CNS
SF-539 CNS = tested on: SF-539 CNS
SK-MEL-2 melanoma = tested on: SK-MEL-2 melanoma
SK-MEL-28 melanoma = tested on: SK-MEL-28 melanoma
SK-MEL-5 melanoma = tested on: SK-MEL-5 melanoma
SK-OV-3 ovarian = tested on: SK-OV-3 ovarian
SN12C renal = tested on: SN12C renal
SNB-19 CNS = tested on: SNB-19 CNS
SNB-75 CNS = tested on: SNB-75 CNS
SR leukemia = tested on: SR leukemia
SW-620 colon = tested on: SW-620 colon
T-47D breast = tested on: T-47D breast
TK-10 renal = tested on: TK-10 renal
U251 CNS = tested on: U251 CNS
UACC-257 melanoma = tested on: UACC-257 melanoma
UACC-62 melanoma = tested on: UACC-62 melanoma
UO-31 renal = tested on: UO-31 renal

SMILES: COc1ccc(-c2nnc(Nc3nc(O)c(C4=c5cc(Br)ccc5=NC4=O)s3)o2)cc1
- GI50 (786-0 renal): 25.1 µM
- TGI (786-0 renal): > 77.8 µM
- GI50 (A498 renal): 12.4 µM
- TGI (A498 renal): 46.4 µM
- GI50 (A549 NSCLC): 26.8 µM
- TGI (A549 NSCLC): > 100 µM
- TGI (ACHN renal): 38.8 µM
- GI50 (BT-549 breast): 6.49 µM
- TGI (BT-549 breast): 27.9 µM
- GI50 (CAKI-1 renal): 17.2 µM
- TGI (CAKI-1 renal): 50.1 µM
- GI50 (CCRF-CEM leukemia): 6.79 µM
- TGI (CCRF-CEM leukemia): 32.7 µM
- GI50 (COLO 205 colon): 32 µM
- TGI (COLO 205 colon): > 100 µM
- GI50 (DU-145 prostate): 16.9 µM
- TGI (DU-145 prostate): > 56.3 µM
- GI50 (EKVX NSCLC): 9.89 µM
- TGI (EKVX NSCLC): > 55.8 µM
- GI50 (HCC-2998 colon): 1.34 µM
- TGI (HCC-2998 colon): 33.8 µM
- GI50 (HCT-116 colon): 25.5 µM
- TGI (HCT-116 colon): 97.7 µM
- GI50 (HCT-15 colon): 18.4 µM
- TGI (HCT-15 colon): > 63 µM
- GI50 (HL-60(TB) leukemia): 0.633 µM
- TGI (HL-60(TB) leukemia): 9.89 µM
- GI50 (HOP-62 NSCLC): 24 µM
- TGI (HOP-62 NSCLC): > 71.1 µM
- GI50 (HOP-92 NSCLC): 21.2 µM
- TGI (HOP-92 NSCLC): 65.6 µM
- GI50 (HS 578T breast): 6.92 µM
- TGI (HS 578T breast): 22.5 µM
- GI50 (HT29 colon): 35.4 µM
- TGI (HT29 colon): > 100 µM
- GI50 (IGROV1 ovarian): 2.68 µM
- TGI (IGROV1 ovarian): 23.8 µM
- GI50 (K-562 leukemia): 20.6 µM
- TGI (K-562 leukemia): 75.2 µM
- GI50 (KM12 colon): 3.54 µM
- TGI (KM12 colon): 23.5 µM
- GI50 (LOX IMVI melanoma): 19.8 µM
- TGI (LOX IMVI melanoma): 62 µM
- GI50 (M14 melanoma): 20.1 µM
- TGI (M14 melanoma): 63.7 µM
- TGI (MALME-3M melanoma): 3.53 µM
- GI50 (MCF7 breast): > 43.9 µM
- TGI (MCF7 breast): > 100 µM
- GI50 (MDA-MB-231 breast): 0.421 µM
- TGI (MDA-MB-231 breast): 10 µM
- GI50 (MDA-MB-435): 23.8 µM
- TGI (MDA-MB-435): 57.7 µM
- GI50 (MOLT-4 leukemia): 3.51 µM
- TGI (MOLT-4 leukemia): 27.6 µM
- GI50 (NCI-H226 lung): 1.02 µM
- TGI (NCI-H226 lung): 8.35 µM
- GI50 (NCI-H23 lung): 23.6 µM
- TGI (NCI-H23 lung): > 69.3 µM
- GI50 (NCI-H460 lung): 22.6 µM
- TGI (NCI-H460 lung): > 100 µM
- GI50 (NCI-H522 lung): 19.8 µM
- TGI (NCI-H522 lung): > 74.2 µM
- GI50 (NCI/ADR-RES ovarian): 22.5 µM
- TGI (NCI/ADR-RES ovarian): > 71.8 µM
- GI50 (OVCAR-3 ovarian): 15.5 µM
- TGI (OVCAR-3 ovarian): 40.3 µM
- GI50 (OVCAR-4 ovarian): 27.5 µM
- TGI (OVCAR-4 ovarian): > 100 µM
- GI50 (OVCAR-5 ovarian): 26.7 µM
- TGI (OVCAR-5 ovarian): 80.3 µM
- GI50 (OVCAR-8 ovarian): 19.3 µM
- TGI (OVCAR-8 ovarian): > 76.4 µM
- GI50 (PC-3 prostate): 18.1 µM
- TGI (PC-3 prostate): > 76.7 µM
- GI50 (RPMI-8226 leukemia): 17.3 µM
- TGI (RPMI-8226 leukemia): > 66.5 µM
- GI50 (RXF 393 renal): 5.48 µM
- TGI (RXF 393 renal): > 55.6 µM
- GI50 (SF-268 CNS): 47.5 µM
- TGI (SF-268 CNS): > 100 µM
- GI50 (SF-295 CNS): 20.6 µM
- TGI (SF-295 CNS): 60.4 µM
- GI50 (SF-539 CNS): 17.9 µM
- TGI (SF-539 CNS): 41.3 µM
- GI50 (SK-MEL-2 melanoma): 17.3 µM
- TGI (SK-MEL-2 melanoma): 48.8 µM
- GI50 (SK-MEL-28 melanoma): 29 µM
- TGI (SK-MEL-28 melanoma): > 100 µM
- GI50 (SK-MEL-5 melanoma): 18.3 µM
- TGI (SK-MEL-5 melanoma): > 59.5 µM
- GI50 (SK-OV-3 ovarian): 52 µM
- TGI (SK-OV-3 ovarian): > 100 µM
- GI50 (SN12C renal): 15.5 µM
- TGI (SN12C renal): 52.8 µM
- GI50 (SNB-19 CNS): 28.1 µM
- TGI (SNB-19 CNS): > 83.4 µM
- GI50 (SNB-75 CNS): 21.6 µM
- TGI (SNB-75 CNS): 75.2 µM
- GI50 (SR leukemia): 1.6 µM
- TGI (SR leukemia): 35.9 µM
- GI50 (SW-620 colon): 14.2 µM
- TGI (SW-620 colon): > 100 µM
- GI50 (T-47D breast): 41.9 µM
- TGI (T-47D breast): > 100 µM
- GI50 (TK-10 renal): 18.9 µM
- TGI (TK-10 renal): 51 µM
- GI50 (U251 CNS): 15.4 µM
- TGI (U251 CNS): 30.7 µM
- GI50 (UACC-257 melanoma): 7.79 µM
- TGI (UACC-257 melanoma): 56.9 µM
- GI50 (UACC-62 melanoma): 1.08 µM
- TGI (UACC-62 melanoma): 26.7 µM
- GI50 (UO-31 renal): 19.4 µM
- TGI (UO-31 renal): 63.1 µM
